Experimental data taken from EPA's ToxValDB 9.5 (doi:10.2903/j.efsa.2016.4419).

Key:
[1] = system: Rattus norvegicus; conditions: for LD50: acute, mortality
[2] = system: Oncorhynchus mykiss; conditions: acute; duration: 96 hours; mortality
[3] = system: Anas platyrhynchos
[4] = system: Colinus virginianus; conditions: acute, oral, mortality
[5] = system: Apis mellifera; conditions: acute, mortality
[6] = system: Daphnia pulex; conditions: chronic/long-term; duration: 21 days; reproduction
[7] = system: Folsomia candida; conditions: chronic/long-term; duration: 14 days; reproduction
[8] = system: Tagia sp.
[9] = system: Lepomis macrochirus; conditions: acute; duration: 96 hours; mortality
[10] = system: Pimephales promelas; conditions: chronic/long-term; duration: 36 days; clinical signs
[11] = system: Mus musculus; conditions: reproduction developmental; organ weight

## CS(=O)(=O)c1ccc(C(=O)O)c(N)c1 [2-Amino-4-(methylsulfonyl)benzoic acid]
[1]
  LD50: > 5000 mg/kg

## CS(=O)(=O)c1ccc(C(=O)C2C(=O)CCCC2=O)c([N+](=O)[O-])c1 [Mesotrione]
[2]
  LC50: > 120 µg/mL
[3]; reproductive
  NOEL: 20.6 mg/kg-day
[3]; short-term, oral, feed, mortality
  LC50: > 5200 mg/kg
[4]; diet
  LC50: > 5200 mg/kg
[4]
  LD50: > 2000 mg/kg
[5]; dermal
  LD50: 52.5 µg/piece
[5]; oral, unspecified
  LD50: > 11 µg/piece
[6]
  NOEC: 180 mg/L
[1]; oral
  LD50: > 5000 mg/kg
[1]; reproduction developmental, organ weight
  NOEL: 0.3 mg/kg-day
[7]
  NOEC: 50.5 mg/kg
[8]; acute, mortality
  LC50: > 2000 mg/kg
[8]; chronic/long-term, reproduction
  NOEC: 10.8 mg/kg
[9]
  LC50: > 120 µg/mL
[10]
  NOEC: 12.5 mg/L
[11]
  NOAEL: 2 mg/kg-day
